Reference: patent US20240002397A1, “3-AMINO PYRROLIDINE AND PIPERIDINE MACROCYCLIC OREXIN RECEPTOR AGONISTS” (Merck Sharp & Dohme LLC, priority 2020, published 2024)

What follows are compounds tested against T1, human OX2R (Homo sapiens, UniProt O43614) (assay: IPOne (IP-1) orexin receptor agonist assay in CHO cells expressing human OX2R). Conditions: CHO, hOX2R IP-One; percentage of mean max effect of a reference compound at 1 uM with 100% activity.
T1 sequence (O43614 1-444): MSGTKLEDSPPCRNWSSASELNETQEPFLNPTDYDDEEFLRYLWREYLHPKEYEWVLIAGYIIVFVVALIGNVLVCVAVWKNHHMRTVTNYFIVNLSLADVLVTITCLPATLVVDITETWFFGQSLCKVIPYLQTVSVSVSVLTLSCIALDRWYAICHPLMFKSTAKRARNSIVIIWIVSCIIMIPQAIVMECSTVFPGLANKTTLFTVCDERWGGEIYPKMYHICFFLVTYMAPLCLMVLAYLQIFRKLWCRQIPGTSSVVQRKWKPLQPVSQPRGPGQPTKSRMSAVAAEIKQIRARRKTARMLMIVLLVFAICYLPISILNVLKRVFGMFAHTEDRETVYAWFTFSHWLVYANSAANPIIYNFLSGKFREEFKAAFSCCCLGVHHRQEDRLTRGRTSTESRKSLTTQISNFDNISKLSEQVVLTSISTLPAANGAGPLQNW

Row | Emax | Compound
1 | 102% | COc1cc2nc(c1)C1CCC(CC1)OCC1[C@@H](NS(=O)(=O)CF)C[C@@H](C)N1C(=O)OCCO2 (stereo partly shown) [Example 104, 1-fluoro-N-((2^1R,2^4R,5^2R,5^3S,5^5R)-1^4-methoxy-5^5-methyl-6-oxo-3,7,10-trioxa-1(2, 6)-pyridina-5(2,1)-pyrro-lidina-2(1,4)-cyclohexana-cyclodecaphane-5^3-yl)methanesulfonamide]
2 | 99.7% | COc1cc2nc(c1)C1CCC(CC1)OCC1[C@@H](NS(=O)(=O)C(F)F)C[C@@H](C)N1C(=O)OCCO2 (stereo partly shown) [Example 105, 1,1-difluoro-N-((2^1R,2^4R,5^2R,5^3S,5^5R)-14-methoxy-5^5-methyl-6-oxo-3,7,10-trioxa-1(2,6)-pyridina-5(2,1)-pyrrolidina-2(1,4)-cyclohex-anacyclodecaphane-5^3-yl)methanesulfonamide]
3 | 97.3% | CCS(=O)(=O)N[C@H]1C[C@@H](C)N2C(=O)OCCCOc3cc(OC)cc(n3)C3CCC(CC3)OCC12 (stereo partly shown) [Example 106, N-((2^1R,2^4R,5^2R,5^3S,5^5R)-1^4-methoxy-5^5-methyl-6-oxo-3,7,11-trioxa-1(2,6)-pyridina-5(2,1)-pyrrolidina-2(1,4)-cyclohex-anacycloundecaphane-5^3-yl)ethanesulfonamide]
4 | 101% | COc1cc2nc(c1)C1CCC(CC1)OCC1[C@@H](NS(=O)(=O)CF)C[C@@H](C)N1C(=O)OCCCO2 (stereo partly shown) [Example 107, 1-fluoro-N-((2^1R,2^4R,5^2R, 5^3S,5^5R)-1^4-methoxy-5^5-methyl-6-oxo-3,7,11-trioxa-1(2,6)-pyridina-5(2,1)-pyrrolidina-2(1,4)-cyclohexanacycloundecaphane-5^3-yl)methanesulfonamide]
5 | 104% | COc1cc2nc(c1)C1CCC(CC1)OCC1[C@@H](NS(=O)(=O)C(F)F)C[C@@H](C)N1C(=O)OCCCO2 (stereo partly shown) [Example 108, 1,1-difluoro-N-((2^1R,2^4R,5^2R,5^3S,5^5R)-14-methoxy-5^5-methyl-6-oxo-3,7,11-trioxa-1(2,6)-pyridina-5(2,1)-pyrrolidina-2(1,4)-cyclohexanacycloundecaphane-5^3-yl)methanesulfonamide]
6 | 99.6% | COc1cc2nc(c1)C1CCC(CC1)OC[C@H]1[C@@H](NS(C)(=O)=O)C[C@@H](C)N1C(=O)OCCCC2 [Example 111, N-((2^1S,2^4S,5^2R,5^3S,5^5R)-1^4-methoxy-5^5-methyl-6-oxo-3,7-dioxa-1(2,6)-pyridina-5(2,1)-pyrrolidina-2(1,4)-cyclohexanacycloundecaphane-5^3-yl)methanesulfonamide]

Continued, compound first:

Row | Compound | Emax
7 | CNC[C@@H]1C[C@H](NS(C)(=O)=O)C2COC3CCC(CC3)c3cc(C(F)F)cc(n3)OCCCOC(=O)N21 (stereo partly shown) [Example 101, N-((2^1S,2^4S,5^2R,5^3S,5^5S)-1^4-(difluoromethyl)-5^5-((methylamino)methyl)-6-oxo-3,7,11-trioxa-1(2,6)-pyridina-5(2,1)-pyrrolidina-2(1,4)-cyclohexanacycloundecaphane-5^3-yl)methanesulfonamide] | 102%
8 | CS(=O)(=O)N[C@H]1C[C@@H](CC(N)=O)N2C(=O)OCCCOc3cc(C(F)F)cc(n3)C3CCC(CC3)OCC12 (stereo partly shown) [Example 102, 2-((2^1S,2^4S,5^2R,5^3S,5^5S)-1^4-(difluoromethyl)-5^3-(methylsulfonamido)-6-oxo-3,7,11-trioxa-1(2,6)-pyridina-5(2,1)-pyrrolidina-2(1,4)-cyclohexanacycloundecaphane-5^5-yl)acetamide] | 99.8%
9 | C[C@@H]1C[C@H](NS(C)(=O)=O)[C@@H]2COC3CCC(CC3)c3ccc(F)c(n3)CCCCOC(=O)N12 [Example 110, N-((2^1S,2^4S,5^2R,5^3S,5^5R)-1^5-fluoro-5^5-methyl-6-oxo-3,7-dioxa-1(2,6)-pyridina-5(2,1)-pyrrolidina-2(1,4)-cyclohexanacycloundecaphane-5^3-yl)methanesulfonamide] | 102%

Same assay, conditions: hOX2R IP-One; percentage of mean max effect of a reference compound at 1 uM with 100% activity

Row | Compound | Emax (%)
10 | CCS(=O)(=O)NC1CC(C)N2C(=O)OCCOc3cc(OC)cc(n3)C3CCC(CC3)OCC12 (stereo not shown) [Example 103, N-((2^1R,2^4R,5^2R,5^3S,5^5R)-1^4-methoxy-5^5-methyl-6-oxo-3,7,10-trioxa-1(2,6)-pyridina-5(2,1)-pyrrolidina-2(1,4)-cyclohexanacyclodecaphane-5^3-yl)ethanesulfonamide] | 103.0%
11 | CC1CC(NS(C)(=O)=O)C2COC3CCC(CC3)c3cc(C(F)(F)F)cc(n3)CCCCOC(=O)N12 (stereo not shown) [Example 109, N-((2^1S,2^4S,5^2R,5^3S,5^5R)-5^5-methyl-6-oxo-14-(trifluoromethyl)-3,7-dioxa-1(2,6)-pyridina-5(2,1)-pyrrolidina-2(1,4)-cyclohexanacycloundecaphane-5^3-yl)methanesulfonamide] | 102.4%
12 | N-((2^1S,2^4S,5^2R,5^3S,5^5R)-1^5- fluoro-1^4-methoxy-5^5-methyl- 6-oxo-3,7,10-trioxa-1(2,6)- pyridina-5(2,1)-pyrrolidina- 2(1,4)-cyclohexanacyclode caphane-5^3-yl)methane sulfonamide [Example 74] | 110.2%
13 | N′-((2^1S,2^4S,5^2R,5^3S)-6-oxo-3,7-dioxa-5(2,1)-piperidina-1(1,2)-benzena-2(1,4)-cyclohexanacyclononaphane-5^3-yl)-N,N-dimethyl-sulfamide [Example 37] | 5.8%
